# According to patent US9695191B2, “Conformationally constrained, fully synthetic macrocyclic compounds” (POLYPHOR AG, priority 2009, dated 2017):
# Read-outs that look alike come from different tables or passages of the source.
# What was measured:
# [1] = amide bond
# [2] = Metabolic stability, human microsomes; assay type: in vitro ADME; conditions: 37° C.; for Metabolic Stability 60 min hum: % of the initial 0 minutes value at 60 min, 10 μM
# Experimental: (§1) Microsomes from a human 50 donor mixed gender pool and 1:1 mixtures of microsomes from CD-1 mouse single-gender pools are purchased from Celsis (Belgium). The enzymatic reaction is performed in a buffer containing an NADPH regeneration system and microsomes with the following end concentrations: 100 mM potassium phosphate buffer (all from Sigma), 1 mg/mL glucose-6-phosphate, 1 mg/mL β-nicotinamide adenine dinucleotide phosphate (NADP), 0.65 mg/mL magnesium chloride, 0.8 units/mL of glucose-6-phosphate dehydrogenase (prediluted with 5 mM citrate buffer), 10 μM compound and 1 mg/ml microsomal protein. Compounds are incubated at 37° C. in duplicates and samples are taken after 0, 20 and 60 minutes. After acetonitrile precipitation (2 volumes) and HPLC/MS/MS analysis metabolic turnover is expressed in % of the initial 0 minutes value and half life T½ (min) is calculated. Verapamil for human and propranolol for mouse are used as reference and are assayed with every experimental set. • F. P. Guengerich, Analysis and Characterization of Enzymes; in: Principles and Methods of Toxicology; A. W. Hayes (Ed.) Raven Press: New York, 1989, 777-813. • R. Singh et al., In vitro metabolism of a potent HIV-protease inhibitor (141W94) using rat, monkey and human liver S9, Rapid Commun. Mass Spectrom. 1996, 10, 1019-1026. 5. Results
# [3] = Metabolic stability, CD-1 mouse microsomes; assay type: in vitro ADME; conditions: 37° C.; for Metabolic Stability 60 min mouse: % of the initial 0 minutes value at 60 min, 10 μM
# Experimental: as §1
# [4] = human, 10 μM
# Experimental: (§2) Example compounds were dissolved in DMSO/H2O 90:10 to a final concentration of 10 mM for plasma stability determination and metabolic stability determination.
# (§3) Human plasma (3-5 donors, Blutspendedienst SRK, Basel) and CD-1 mouse plasma (mixed gender pool>50 animals, Innovative Research, CA, USA) are both sodium citrate stabilized. The assay is performed in triplicates at 10 μM compound concentration and 37° C. Samples are taken at 0, 15, 60, and 240 minutes and stopped by precipitation with 2 volumes of acetonitrile. The supernatant is collected, evaporated and reconstituted in a 5% acetonitrile solution to be analyzed by HPLC/MS/MS. The resulting peak area counts are expressed in percent of the 0 value and used to determine the endpoint stability in % and the half life T½ in minutes. In order to monitor assay integrity the degradation of propantheline is assayed with every experimental set
# [5] = both, CD-1, mouse, 10 μM
# Experimental: as §2, §3
# [6] = 10 μM compound, 1 mg/ml microsomal protein, sampling up to 60 min
SMILES,Metabolic Stability 60 min hum [2],Metabolic Stability 60 min mouse [3],Plasma Stability 240 min hum [4],Plasma Stability 240 min mouse [5],other results
CN1CC(=O)N2C[C@@H](NC(=O)OC(C)(C)C)C[C@H]2COc2ccc(F)cc2C(=O)N(C)[C@H](C(=O)OCc2ccccc2)CCC1=O,–,–,–,–,"ring closure, yield of all isomers ([1]; from CNCC(=O)N1C[C@@H](NC(=O)OC(C)(C)C)C[C@H]1COc1ccc(F)cc1C(=O)N(C)[C@@H](CCC(=O)O)C(=O)OCc1ccccc1, FDPP, DMF, 8.44 mM, 25.0 °C, 22.0 h): 94%"
CN1CC(=O)N2C[C@@H](NC(=O)OCC[Si](C)(C)C)C[C@H]2COc2cccc3c2C[C@@](NC(=O)OC(C)(C)C)(CC3)C(=O)N(C)C[C@H](NC(=O)OCc2ccccc2)C1=O,–,–,–,–,"ring closure, yield of all isomers ([1]; from CN(CC(=O)O)C(=O)[C@H](CN(C)C(=O)[C@]1(NC(=O)OC(C)(C)C)CCc2cccc(OC[C@@H]3C[C@H](NC(=O)OCC[Si](C)(C)C)CN3)c2C1)NC(=O)OCc1ccccc1, T3P, CH2Cl2, 10.0 mM, 2.0 h): 44%"
CN1CCC[C@H](NC(=O)OCc2ccccc2)C(=O)N2C[C@@H](NC(=O)OCC[Si](C)(C)C)C[C@H]2COc2cccc(c2)C1=O,–,–,–,–,"ring closure, yield of all isomers ([1]; from CN(CCC[C@H](NC(=O)OCc1ccccc1)C(=O)O)C(=O)c1cccc(OC[C@@H]2C[C@H](NC(=O)OCC[Si](C)(C)C)CN2)c1, T3P, i-Pr2NEt, CH2Cl2, 9.4 mM): 54%"
CN1C(=O)c2cc(F)ccc2OC[C@@H]2C[C@H](NC(=O)OCC[Si](C)(C)C)CN2C(=O)CC[C@H]1C(=O)OCc1ccccc1,–,–,–,–,"ring closure, yield of all isomers ([1]; from CN(C(=O)c1cc(F)ccc1OC[C@@H]1C[C@H](NC(=O)OCC[Si](C)(C)C)CN1)[C@@H](CCC(=O)O)C(=O)OCc1ccccc1, T3P, CH2Cl2, 10.0 mM, 25.0 °C, […]): 61%"
CN1C(=O)c2cc(F)ccc2OC[C@@H]2CN(C(=O)OC(C)(C)C)CCN2C(=O)CC[C@H]1C(=O)OCc1ccccc1,–,–,–,–,"ring closure, yield of all isomers ([1]; from CN(C(=O)c1cc(F)ccc1OC[C@@H]1CN(C(=O)OC(C)(C)C)CCN1)[C@@H](CCC(=O)O)C(=O)OCc1ccccc1, T3P, CH2Cl2, 0.57 mM, 25.0 °C, 22.0 h): 77%"
CN1CC(=O)N2C[C@H](NC(=O)OC(C)(C)C)C[C@H]2CSc2cccc(c2)C(=O)N(C)[C@H](C(=O)OCc2ccccc2)CCC1=O,–,–,–,–,"ring closure, yield of all isomers ([1]; from CNCC(=O)N1C[C@H](NC(=O)OC(C)(C)C)C[C@H]1CSc1cccc(C(=O)N(C)[C@@H](CCC(=O)O)C(=O)OCc2ccccc2)c1, T3P, CH2Cl2, 10.0 mM, 25.0 °C, 3.0 h): 57%"
"CN1CC(=O)N2C[C@@H](NC(=O)CCC(=O)O)C[C@H]2COc2ccc(F)cc2C(=O)N(C)[C@@H](C(=O)NCc2ccc3ccccc3c2)CCC1=O [Ex. 95, 4-[((2S,11R,19aS)-15-fluoro-7,12-dimethyl-11-{[(2-naphthylmethyl)amino]carbonyl}-5,8,13-trioxo-2,3,6,7,8,9,10,11,12,13,19,19a-dodecahydro-1H,5H-pyrrolo [2,1-c][1,4,7,12]benzoxatriazacyclopentadecin-2-yl)amino]-4-oxobutanoic acid]",76%,94%,100%,93%,"Metabolic Stability T ½ [min] hum [2, 6]: 60 min; Metabolic Stability T ½ [min] mouse [3, 6]: 60 min"
CN1CC(=O)N2C[C@H](NC(=O)OC(C)(C)C)C[C@H]2COc2ccc(F)cc2C(=O)N(C)[C@H](C(=O)OCc2ccccc2)CCC1=O,–,–,–,–,"ring closure, yield of all isomers ([1]; from CNCC(=O)N1C[C@H](NC(=O)OC(C)(C)C)C[C@H]1COc1ccc(F)cc1C(=O)N(C)[C@@H](CCC(=O)O)C(=O)OCc1ccccc1, T3P, CH2Cl2, 10.5 mM, 25.0 °C, 22.0 h): 87%"
CN1CC(=O)N2C[C@H](NC(=O)OC(C)(C)C)C[C@H]2COc2ccc(cc2)C(=O)N(C)[C@H](C(=O)OCc2ccccc2)CCC1=O,–,–,–,–,"ring closure, yield of all isomers ([1]; from CNCC(=O)N1C[C@H](NC(=O)OC(C)(C)C)C[C@H]1COc1ccc(C(=O)N(C)[C@@H](CCC(=O)O)C(=O)OCc2ccccc2)cc1, T3P, CH2Cl2, 1.05 mM, 3.0 h): 54%"
"CCN(CC)[C@H]1C[C@H]2COc3ccc(F)cc3C(=O)N(C)[C@H](C(=O)N3CCCC3)CCC(=O)N(C)CC(=O)N2C1 [Ex. 43, (2S,11S,19aS)-2-(diethylamino)-15-fluoro-7,12-dimethyl-11-(1-pyrrolidinylcarbonyl)-2,3,6,7,9,10,11,12,19,19a-decahydro-1H,5H-pyrrolo[2,1-c][1,4,7,12] benzoxatriazacyclopentadecine-5,8,13-trione]",100%,98%,82%,89%,–
"CN(C)CCNC(=O)[C@@H]1CCC(=O)N(C)CC(=O)N2C[C@@H](NC(=O)Cc3cccc4ccccc34)C[C@H]2COc2ccc(F)cc2C(=O)N1C [Ex. 49, (2S,11S,19aS)-N-[2-(dimethylamino)ethyl]-15-fluoro-7,12-dimethyl-2-{[2-(1-naphthyl)acetyl]amino}-5,8,13-trioxo-2,3,6,7,8,9,10,11,12,13,19,19a-dodecahydro-1H,5H-pyrrolo[2,1-c][1,4,7,12]benzoxatriazacyclopentadecine-11-carboxamide]",10%,83%,83%,96%,–

# Second part, led by results:
Metabolic Stability 60 min hum [2],Metabolic Stability 60 min mouse [3],Plasma Stability 240 min hum [4],Plasma Stability 240 min mouse [5],SMILES,other results
19%,69%,100%,100%,"CN1CC(=O)N2C[C@H](NC(=O)CCc3ccncc3)C[C@H]2COc2ccc(cc2)C(=O)N(C)[C@H](C(=O)NCc2ccc3ccccc3c2)CCC1=O [Ex. 260, (4S,6R,15S)-11,16-dimethyl-N-(2-naphthylmethyl)-9,12,17-trioxo-6-{[3-(4-pyridinyl)propanoyl]amino}-2-oxa-8,11,16-triazatricyclo[16.2.2.0^4,8]docosa-1(20),18,21-triene-15-carboxamide]",–
97%,100%,100%,78%,"CN1CC(=O)N2C[C@@H](NC(=O)CN3CCCC3)C[C@H]2COc2ccc(F)cc2C(=O)N(C)[C@@H](C(=O)N2CCCC2)CCC1=O [Ex. 98, N-[(2S,11R,19aS)-15-fluoro-7,12-dimethyl-5,8,13-trioxo-11-(1-pyrrolidinylcarbonyl)-2,3,6,7,8,9,10,11,12,13,19,19a-dodecahydro-1H,5H-pyrrolo[2,1-c][1,4,7,12]benzoxatriazacyclopentadecin-2-yl]-2-(1-pyrrolidinyl)acetamide]",–
4%,39%,65%,75%,"CCCCCCCCCC(=O)N[C@H]1C[C@H]2COc3ccc(F)cc3C(=O)N(C)[C@H](C(=O)NCc3ccc4ccccc4c3)CCC(=O)N(C)CC(=O)N2C1 [Ex. 102, (2S,11S,19aS)-2-(decanoylamino)-15-fluoro-7,12-dimethyl-N-(2-naphthylmethyl)-5,8,13-trioxo-2,3,6,7,8,9,10,11,12,13,19,19a-dodecahydro-1H,5H-pyrrolo[2,1-c][1,4,7,12] benzoxatriazacyclopentadecine-11-carboxamide]",–
100%,98%,92%,74%,"CN1CC(=O)N2C[C@H](NC(=O)CN3CCCC3)C[C@H]2COc2ccc(cc2)C(=O)N(C)[C@H](C(=O)NCc2ccncc2)CCC1=O [Ex. 266, (4S,6R,15S)-11,16-dimethyl-9,12,17-trioxo-N-(4-pyridinylmethyl)-6-{[2-(1-pyrrolidinyl)acetyl]amino}-2-oxa-8,11,16-triazatricyclo[16.2.2.0^4,8]docosa-1(20),18,21-triene-15-carboxamide]",–
99%,100%,75%,79%,"CN1CC(=O)N2C[C@H](NC(=O)CCC(=O)O)C[C@H]2COc2ccc(cc2)C(=O)N(C)[C@H](C(=O)NCc2ccncc2)CCC1=O [Ex. 267, 4-{[(4S,6R,15S)-11,16-dimethyl-9,12,17-trioxo-15-{[(4-pyridinylmethyl)amino]carbonyl}-2-oxa-8,11,16-triazatricyclo [16.2.2.0^4,8]docosa-1(20),18,21-trien-6-yl]amino}-4-oxobutanoic acid]",–
61%,90%,100%,95%,"CN(C)CC(=O)N[C@@H]1C[C@H]2COc3cccc(c3)C(=O)N(C)C[C@H](NC(=O)Cc3ccc4ccccc4c3)C(=O)N(C)CC(=O)N2C1 [Ex. 230, 2-(dimethylamino)-N-[(4S,6R,13S)-11,15-dimethyl-13-{[2-(2-naphthyl)acetyl]amino}-9,12,16-trioxo-2-oxa-8,11,15-triazatricyclo[15.3.1.0^4,8]henicosa-1(21),17,19-trien-6-yl]acetamide]",–
